Experiments:
[1] = target: AKT1 (Homo sapiens, UniProt P31749); test: Enzyme selectivity panel; assay type: biochemical; settings: 1 mM ATP
Description: The kinase assays were carried out at room temperature in HEPES 50 mM, pH 7.0, NaN3 0.02%, BSA 0.01%, Orthovanadate 0.1 mM, DTT 1 mM, MgCl2 10 mM in a final volume of 10 µL. Test compounds were transferred to the plate wells by ECHO liquid handler (Labcyte, San Jose, CA) with 0.5% dimethyl sulfoxide (DMSO) in the final assay. Peptide/kinase mixtures were diluted in the appropriate enzymatic buffer and 5µL of the mixture was added to a 384-well small volume black plate. Reactions were initiated by the addition of 5 µL ATP in reaction buffer, the final reaction mixture consisted of 500 nM peptide substrate, 1 mM ATP, and appropriate amount of specific kinase. […] The plates were then sealed and centrifuged at 1800 rpm for 2 minutes. […] Half maximal inhibitory concentration (IC50) determination was performed by fitting the curve of percent control activity versus the log of the compound concentration using the GraphPad Prism 6.0 software.

[2] = target: T1, EPHA5 (Homo sapiens, UniProt P54756); test: Broader kinase panel (PerkinElmer); assay type: biochemical; settings: 100 nM; read-out: Average Percent Inhibition
T1 construct: purchased In-house HTRF panel (56 kinases) and PerkinElmer (161-kinase panel)
Description: (§1) […]. […] […].

[3] = target: T2, TSSK1 (Homo sapiens, UniProt Q9BXA7); test: Broader kinase panel (PerkinElmer); assay type: biochemical; settings: 100 nM; read-out: Average Percent Inhibition
T2 construct: purchased In-house HTRF panel (56 kinases) and PerkinElmer (161-kinase panel)
Description: as §1

[4] = target: T3, LYNB (Homo sapiens, UniProt P07948); test: Broader kinase panel (PerkinElmer); assay type: biochemical; settings: 100 nM; read-out: Average Percent Inhibition
T3 construct: purchased In-house HTRF panel (56 kinases) and PerkinElmer (161-kinase panel)
Description: as §1

[5] = target: T4, ROS (ROS1) (Homo sapiens, UniProt P08922); test: Broader kinase panel (PerkinElmer); assay type: biochemical; settings: 100 nM; read-out: Average Percent Inhibition
T4 construct: purchased In-house HTRF panel (56 kinases) and PerkinElmer (161-kinase panel)
Description: as §1

[6] = target: T5, FGFR3 [K650E] (Homo sapiens, UniProt P22607, K650E); test: Broader kinase panel (PerkinElmer); assay type: biochemical; settings: 100 nM; read-out: Average Percent Inhibition
T5 construct: purchased In-house HTRF panel (56 kinases) and PerkinElmer (161-kinase panel)
Description: as §1

[7] = target: T6, Ret (V804L) (Homo sapiens, UniProt P07949, V804L); test: Broader kinase panel (PerkinElmer); assay type: biochemical; settings: 100 nM; read-out: Average Percent Inhibition
T6 construct: purchased In-house HTRF panel (56 kinases) and PerkinElmer (161-kinase panel)
Description: as §1

[8] = target: T7, BLK (Homo sapiens, UniProt P51451); test: Broader kinase panel (PerkinElmer); assay type: biochemical; settings: 100 nM; read-out: Average Percent Inhibition
T7 construct: purchased In-house HTRF panel (56 kinases) and PerkinElmer (161-kinase panel)
Description: as §1

[9] = target: PAK4 (Homo sapiens, UniProt O96013); test: Broader kinase panel (PerkinElmer); assay type: biochemical; settings: 100 nM; read-out: Average Percent Inhibition
Description: as §1

[10] = target: T8, EPHA4 (Homo sapiens, UniProt P54764); test: Broader kinase panel (PerkinElmer); assay type: biochemical; settings: 100 nM; read-out: Average Percent Inhibition
T8 construct: purchased In-house HTRF panel (56 kinases) and PerkinElmer (161-kinase panel)
Description: as §1

[11] = target: T9, PAK3 (Homo sapiens, UniProt O75914); test: Broader kinase panel (PerkinElmer); assay type: biochemical; settings: 100 nM; read-out: Average Percent Inhibition
T9 construct: purchased In-house HTRF panel (56 kinases) and PerkinElmer (161-kinase panel)
Description: as §1

[12] = target: T10, MST1 (Homo sapiens, UniProt Q13043); test: Broader kinase panel (PerkinElmer); assay type: biochemical; settings: 100 nM; read-out: Average Percent Inhibition
T10 construct: purchased In-house HTRF panel (56 kinases) and PerkinElmer (161-kinase panel)
Description: as §1

[13] = target: T11, FGFR3 (Homo sapiens, UniProt P22607); test: Broader kinase panel (PerkinElmer); assay type: biochemical; settings: 100 nM; read-out: Average Percent Inhibition
T11 construct: purchased In-house HTRF panel (56 kinases) and PerkinElmer (161-kinase panel)
Description: as §1

[14] = target: T12, IRAK4 (Homo sapiens, UniProt Q9NWZ3); test: Broader kinase panel (PerkinElmer); assay type: biochemical; settings: 100 nM; read-out: Average Percent Inhibition
T12 construct: purchased In-house HTRF panel (56 kinases) and PerkinElmer (161-kinase panel)
Description: as §1

[15] = target: T13, GSK3B (Homo sapiens, UniProt P49841); test: Broader kinase panel (PerkinElmer); assay type: biochemical; settings: 100 nM; read-out: Average Percent Inhibition
T13 construct: purchased In-house HTRF panel (56 kinases) and PerkinElmer (161-kinase panel)
Description: as §1

[16] = target: T14, CamK1d (Homo sapiens, UniProt Q8IU85); test: Broader kinase panel (PerkinElmer); assay type: biochemical; settings: 100 nM; read-out: Average Percent Inhibition
T14 construct: purchased In-house HTRF panel (56 kinases) and PerkinElmer (161-kinase panel)
Description: as §1

[17] = target: EPHA2 (Homo sapiens, UniProt P29317); test: Broader kinase panel (PerkinElmer); assay type: biochemical; settings: 100 nM; read-out: Average Percent Inhibition
Description: as §1

[18] = target: T15, FES (Homo sapiens, UniProt P07332); test: Broader kinase panel (PerkinElmer); assay type: biochemical; settings: 100 nM; read-out: Average Percent Inhibition
T15 construct: purchased In-house HTRF panel (56 kinases) and PerkinElmer (161-kinase panel)
Description: as §1

[19] = target: IGF1R (Homo sapiens, UniProt P08069); test: Broader kinase panel (PerkinElmer); assay type: biochemical; settings: 100 nM; read-out: Average Percent Inhibition
Description: as §1

[20] = target: T16, Ca MKII_gamma (Homo sapiens, UniProt Q13555); test: Broader kinase panel (PerkinElmer); assay type: biochemical; settings: 100 nM; read-out: Average Percent Inhibition
T16 construct: purchased In-house HTRF panel (56 kinases) and PerkinElmer (161-kinase panel)
Description: as §1

[21] = target: T17, NTRK2 (TRKB) (Homo sapiens, UniProt Q16620); test: Broader kinase panel (PerkinElmer); assay type: biochemical; settings: 100 nM; read-out: Average Percent Inhibition
T17 construct: purchased In-house HTRF panel (56 kinases) and PerkinElmer (161-kinase panel)
Description: as §1

[22] = test system: CAMK2; test: Broader kinase panel (PerkinElmer); assay type: biochemical; settings: 100 nM
Description: as §1

[23] = target: T18, DYRK1B (Homo sapiens, UniProt Q9Y463); test: Broader kinase panel (PerkinElmer); assay type: biochemical; settings: 100 nM; read-out: Average Percent Inhibition
T18 construct: purchased In-house HTRF panel (56 kinases) and PerkinElmer (161-kinase panel)
Description: as §1

[24] = target: T19, PKD2 (Homo sapiens, UniProt Q9BZL6); test: Broader kinase panel (PerkinElmer); assay type: biochemical; settings: 100 nM; read-out: Average Percent Inhibition
T19 construct: purchased In-house HTRF panel (56 kinases) and PerkinElmer (161-kinase panel)
Description: as §1

[25] = target: T20, PRAK (Homo sapiens, UniProt Q8IW41); test: Broader kinase panel (PerkinElmer); assay type: biochemical; settings: 100 nM; read-out: Average Percent Inhibition
T20 construct: purchased In-house HTRF panel (56 kinases) and PerkinElmer (161-kinase panel)
Description: as §1

[26] = target: T21, BRSK1 (Homo sapiens, UniProt Q8TDC3); test: Broader kinase panel (PerkinElmer); assay type: biochemical; settings: 100 nM; read-out: Average Percent Inhibition
T21 construct: purchased In-house HTRF panel (56 kinases) and PerkinElmer (161-kinase panel)
Description: as §1

[27] = target: CDK2 (Homo sapiens, UniProt P24941); test: Broader kinase panel (PerkinElmer); assay type: biochemical; settings: 100 nM; read-out: Average Percent Inhibition
Description: as §1

[28] = target: T22, ALK (Homo sapiens, UniProt Q9UM73); test: Broader kinase panel (PerkinElmer); assay type: biochemical; settings: 100 nM; read-out: Average Percent Inhibition
T22 construct: purchased In-house HTRF panel (56 kinases) and PerkinElmer (161-kinase panel)
Description: as §1

[29] = target: T23, IKBKE (IKK epsilon) (Homo sapiens, UniProt Q14164); test: Broader kinase panel (PerkinElmer); assay type: biochemical; settings: 100 nM; read-out: Average Percent Inhibition
T23 construct: purchased In-house HTRF panel (56 kinases) and PerkinElmer (161-kinase panel)
Description: as §1

[30] = target: T24, AurB (Homo sapiens, UniProt Q96GD4); test: Broader kinase panel (PerkinElmer); assay type: biochemical; settings: 100 nM; read-out: Average Percent Inhibition
T24 construct: purchased In-house HTRF panel (56 kinases) and PerkinElmer (161-kinase panel)
Description: as §1

[31] = target: T25, RET Y791F (Homo sapiens, UniProt P07949, Y791F); test: Broader kinase panel (PerkinElmer); assay type: biochemical; settings: 100 nM; read-out: Average Percent Inhibition
T25 construct: purchased In-house HTRF panel (56 kinases) and PerkinElmer (161-kinase panel)
Description: as §1

[32] = target: MAPKAPK2 (Homo sapiens, UniProt P49137); test: Broader kinase panel (PerkinElmer); assay type: biochemical; settings: 100 nM; read-out: Average Percent Inhibition
Description: as §1

[33] = target: T26, KIT (Homo sapiens, UniProt P10721); test: Broader kinase panel (PerkinElmer); assay type: biochemical; settings: 100 nM; read-out: Average Percent Inhibition
T26 construct: purchased In-house HTRF panel (56 kinases) and PerkinElmer (161-kinase panel)
Description: as §1

[34] = target: LOK (Homo sapiens, UniProt O94804); test: Broader kinase panel (PerkinElmer); assay type: biochemical; settings: 100 nM; read-out: Average Percent Inhibition
Description: as §1

[35] = target: T27, LYN (Homo sapiens, UniProt P07948); test: Broader kinase panel (PerkinElmer); assay type: biochemical; settings: 100 nM; read-out: Average Percent Inhibition
T27 construct: purchased In-house HTRF panel (56 kinases) and PerkinElmer (161-kinase panel)
Description: as §1

[36] = target: T28, PhKg1 (Homo sapiens, UniProt Q16816); test: Broader kinase panel (PerkinElmer); assay type: biochemical; settings: 100 nM; read-out: Average Percent Inhibition
T28 construct: purchased In-house HTRF panel (56 kinases) and PerkinElmer (161-kinase panel)
Description: as §1

[37] = target: T29, PAK2 (Homo sapiens, UniProt Q13177); test: Broader kinase panel (PerkinElmer); assay type: biochemical; settings: 100 nM; read-out: Average Percent Inhibition
T29 construct: purchased In-house HTRF panel (56 kinases) and PerkinElmer (161-kinase panel)
Description: as §1

[38] = test system: KG1a (AML); test: Cell viability assay (CellTiter-Glo); assay type: cell-based; settings: Homo sapiens, KG-1a; FGFR1OP2-FGFR1 fusion; 72 hours; read-out: Mean GI50 ± S.D.
[39] = test system: HCC-422; test: Cell viability assay (CellTiter-Glo); assay type: cell-based; settings: Lung cancer; lacking FGFR alterations
[40] = test system: myeloid/lymphoid neoplasm expressing CEP110-FGFR1; set-up: method as in PMID 29767670; settings: single patient, CEP110-FGFR1 fusion ref 40; cited from earlier work

T24 sequence (Q96GD4 whole entry): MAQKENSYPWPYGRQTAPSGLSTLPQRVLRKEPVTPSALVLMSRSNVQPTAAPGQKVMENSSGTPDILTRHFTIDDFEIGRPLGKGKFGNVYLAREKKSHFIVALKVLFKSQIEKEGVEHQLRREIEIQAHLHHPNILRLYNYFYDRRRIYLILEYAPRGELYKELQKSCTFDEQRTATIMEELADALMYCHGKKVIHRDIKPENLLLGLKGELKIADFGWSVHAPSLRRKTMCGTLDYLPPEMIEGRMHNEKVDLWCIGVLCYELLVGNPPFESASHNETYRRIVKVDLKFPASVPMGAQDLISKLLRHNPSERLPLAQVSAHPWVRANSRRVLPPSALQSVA
T27 sequence (P07948 whole entry): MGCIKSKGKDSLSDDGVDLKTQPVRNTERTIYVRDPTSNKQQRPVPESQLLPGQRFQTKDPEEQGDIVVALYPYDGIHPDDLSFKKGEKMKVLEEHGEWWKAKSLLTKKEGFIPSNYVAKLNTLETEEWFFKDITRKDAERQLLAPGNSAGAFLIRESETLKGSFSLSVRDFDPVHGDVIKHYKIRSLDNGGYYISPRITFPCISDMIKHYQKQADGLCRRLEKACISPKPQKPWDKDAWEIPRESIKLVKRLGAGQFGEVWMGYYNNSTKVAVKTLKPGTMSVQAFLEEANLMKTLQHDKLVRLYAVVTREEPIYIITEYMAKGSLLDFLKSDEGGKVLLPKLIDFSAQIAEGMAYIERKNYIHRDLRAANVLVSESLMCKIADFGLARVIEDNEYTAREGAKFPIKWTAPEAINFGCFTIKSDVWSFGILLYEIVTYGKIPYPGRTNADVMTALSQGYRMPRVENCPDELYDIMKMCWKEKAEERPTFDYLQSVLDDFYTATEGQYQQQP
Chain of IGF1R (P08069 31-1367, species assumed): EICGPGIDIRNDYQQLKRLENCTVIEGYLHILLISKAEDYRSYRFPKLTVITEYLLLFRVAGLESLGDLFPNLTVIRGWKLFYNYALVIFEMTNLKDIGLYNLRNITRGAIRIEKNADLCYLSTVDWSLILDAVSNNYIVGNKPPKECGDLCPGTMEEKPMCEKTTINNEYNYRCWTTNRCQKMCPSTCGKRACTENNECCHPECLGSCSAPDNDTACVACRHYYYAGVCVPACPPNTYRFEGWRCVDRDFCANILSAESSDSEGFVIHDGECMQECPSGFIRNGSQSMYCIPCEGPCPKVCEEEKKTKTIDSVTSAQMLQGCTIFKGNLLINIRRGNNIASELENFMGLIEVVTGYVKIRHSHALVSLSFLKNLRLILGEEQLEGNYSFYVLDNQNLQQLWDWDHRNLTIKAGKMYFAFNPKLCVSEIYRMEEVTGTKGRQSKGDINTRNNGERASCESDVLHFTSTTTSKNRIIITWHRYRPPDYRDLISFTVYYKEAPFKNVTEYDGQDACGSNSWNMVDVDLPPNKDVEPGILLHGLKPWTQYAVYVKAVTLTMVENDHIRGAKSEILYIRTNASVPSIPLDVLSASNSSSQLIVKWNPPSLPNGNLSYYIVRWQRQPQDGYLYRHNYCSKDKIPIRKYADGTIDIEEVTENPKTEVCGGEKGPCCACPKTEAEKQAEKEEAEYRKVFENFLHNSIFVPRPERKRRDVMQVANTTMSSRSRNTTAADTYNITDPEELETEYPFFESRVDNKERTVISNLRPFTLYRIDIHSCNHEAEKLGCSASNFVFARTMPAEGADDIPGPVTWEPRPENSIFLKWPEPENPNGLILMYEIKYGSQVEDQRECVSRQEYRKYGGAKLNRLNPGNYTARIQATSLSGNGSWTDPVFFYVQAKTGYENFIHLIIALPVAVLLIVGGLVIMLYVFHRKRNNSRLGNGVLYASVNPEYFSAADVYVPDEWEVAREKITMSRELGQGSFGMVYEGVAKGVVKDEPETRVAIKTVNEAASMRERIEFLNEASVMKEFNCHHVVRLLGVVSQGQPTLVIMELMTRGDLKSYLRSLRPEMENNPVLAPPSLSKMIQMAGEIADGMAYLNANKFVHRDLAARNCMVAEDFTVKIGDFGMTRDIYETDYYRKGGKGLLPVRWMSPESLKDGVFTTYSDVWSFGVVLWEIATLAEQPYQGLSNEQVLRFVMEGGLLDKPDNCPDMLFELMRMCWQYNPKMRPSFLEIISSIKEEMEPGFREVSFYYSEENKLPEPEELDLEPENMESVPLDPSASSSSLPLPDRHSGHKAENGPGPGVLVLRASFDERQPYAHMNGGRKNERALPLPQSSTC
T6 sequence (P07949 29-1114 V804L): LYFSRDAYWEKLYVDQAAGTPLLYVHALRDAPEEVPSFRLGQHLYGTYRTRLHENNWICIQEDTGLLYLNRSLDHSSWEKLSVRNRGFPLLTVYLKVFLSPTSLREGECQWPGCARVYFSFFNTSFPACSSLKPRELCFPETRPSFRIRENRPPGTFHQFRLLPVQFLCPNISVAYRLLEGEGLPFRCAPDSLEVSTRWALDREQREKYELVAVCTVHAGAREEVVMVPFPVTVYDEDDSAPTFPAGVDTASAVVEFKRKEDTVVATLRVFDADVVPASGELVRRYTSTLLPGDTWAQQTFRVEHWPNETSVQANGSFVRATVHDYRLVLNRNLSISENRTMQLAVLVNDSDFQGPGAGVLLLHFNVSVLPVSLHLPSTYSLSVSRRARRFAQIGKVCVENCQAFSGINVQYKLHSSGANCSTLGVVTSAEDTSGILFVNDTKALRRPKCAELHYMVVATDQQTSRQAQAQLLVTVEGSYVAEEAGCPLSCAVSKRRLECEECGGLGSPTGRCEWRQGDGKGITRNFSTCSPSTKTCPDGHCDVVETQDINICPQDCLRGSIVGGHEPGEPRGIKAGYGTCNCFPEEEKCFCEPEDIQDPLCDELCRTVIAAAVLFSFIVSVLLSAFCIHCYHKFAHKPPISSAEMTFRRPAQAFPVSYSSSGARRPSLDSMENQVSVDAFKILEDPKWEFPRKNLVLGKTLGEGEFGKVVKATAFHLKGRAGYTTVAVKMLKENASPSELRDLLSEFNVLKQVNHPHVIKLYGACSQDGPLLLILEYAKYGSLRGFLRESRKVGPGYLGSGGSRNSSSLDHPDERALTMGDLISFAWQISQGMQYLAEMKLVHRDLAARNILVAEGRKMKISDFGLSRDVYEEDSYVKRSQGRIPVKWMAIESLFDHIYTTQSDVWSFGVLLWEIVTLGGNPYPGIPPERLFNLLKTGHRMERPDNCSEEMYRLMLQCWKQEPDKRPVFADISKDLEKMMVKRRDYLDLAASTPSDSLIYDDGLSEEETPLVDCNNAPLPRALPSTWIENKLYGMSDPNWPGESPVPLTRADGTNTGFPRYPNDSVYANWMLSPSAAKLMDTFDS
T10 sequence (Q13043 whole entry): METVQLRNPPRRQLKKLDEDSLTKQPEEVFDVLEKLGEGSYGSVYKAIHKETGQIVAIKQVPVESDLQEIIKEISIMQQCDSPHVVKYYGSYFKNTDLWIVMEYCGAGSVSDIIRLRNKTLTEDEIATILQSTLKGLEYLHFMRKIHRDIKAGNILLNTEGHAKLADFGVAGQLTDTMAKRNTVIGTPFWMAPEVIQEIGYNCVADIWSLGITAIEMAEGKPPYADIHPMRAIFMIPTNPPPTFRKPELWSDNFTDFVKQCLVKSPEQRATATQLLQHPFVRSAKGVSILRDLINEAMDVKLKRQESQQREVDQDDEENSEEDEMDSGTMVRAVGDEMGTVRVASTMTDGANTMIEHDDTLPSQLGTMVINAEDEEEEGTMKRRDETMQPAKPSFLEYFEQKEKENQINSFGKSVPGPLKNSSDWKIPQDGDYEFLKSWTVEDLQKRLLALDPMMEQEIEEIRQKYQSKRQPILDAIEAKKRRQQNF
T15 sequence (P07332 whole entry): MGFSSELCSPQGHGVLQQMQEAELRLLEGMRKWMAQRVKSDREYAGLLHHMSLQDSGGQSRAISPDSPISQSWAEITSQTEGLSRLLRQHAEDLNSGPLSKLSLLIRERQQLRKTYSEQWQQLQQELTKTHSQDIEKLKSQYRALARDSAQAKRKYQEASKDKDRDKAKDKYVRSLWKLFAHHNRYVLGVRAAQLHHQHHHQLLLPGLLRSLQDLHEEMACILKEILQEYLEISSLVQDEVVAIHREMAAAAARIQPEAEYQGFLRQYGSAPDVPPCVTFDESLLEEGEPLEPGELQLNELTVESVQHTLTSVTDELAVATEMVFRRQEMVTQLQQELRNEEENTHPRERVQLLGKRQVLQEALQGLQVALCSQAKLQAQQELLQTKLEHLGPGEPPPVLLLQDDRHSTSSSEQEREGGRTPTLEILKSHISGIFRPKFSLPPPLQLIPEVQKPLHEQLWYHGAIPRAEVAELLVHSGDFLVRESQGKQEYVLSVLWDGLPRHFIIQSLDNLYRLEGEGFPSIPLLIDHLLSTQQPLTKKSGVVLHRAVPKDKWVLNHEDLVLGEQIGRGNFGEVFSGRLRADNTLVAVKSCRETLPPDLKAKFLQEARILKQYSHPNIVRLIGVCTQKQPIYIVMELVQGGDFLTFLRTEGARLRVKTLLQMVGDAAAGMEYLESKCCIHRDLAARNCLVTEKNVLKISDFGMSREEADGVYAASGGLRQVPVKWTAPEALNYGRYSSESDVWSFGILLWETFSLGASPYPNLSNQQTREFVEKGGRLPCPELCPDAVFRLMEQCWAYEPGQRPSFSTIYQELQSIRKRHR
T2 sequence (Q9BXA7 whole entry): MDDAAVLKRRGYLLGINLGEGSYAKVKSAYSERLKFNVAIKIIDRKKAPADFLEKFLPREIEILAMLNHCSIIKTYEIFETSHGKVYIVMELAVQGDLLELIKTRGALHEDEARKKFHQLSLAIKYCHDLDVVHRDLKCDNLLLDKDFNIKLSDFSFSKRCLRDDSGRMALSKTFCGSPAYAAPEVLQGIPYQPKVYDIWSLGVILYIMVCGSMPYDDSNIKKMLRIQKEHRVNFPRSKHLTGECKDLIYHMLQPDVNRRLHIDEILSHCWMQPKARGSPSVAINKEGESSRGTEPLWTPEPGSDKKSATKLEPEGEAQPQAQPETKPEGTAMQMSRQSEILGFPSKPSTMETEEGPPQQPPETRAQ
T25 sequence (P07949 29-1114 Y791F): as the sequence (P07949 29-1114 V804L) above, with Y763F, L776V counted along it

## CCN1C(=O)N(c2c(F)c(OC)cc(OC)c2F)Cc2cnc3[nH]c(CN4CCOCC4)cc3c21 [INCB054828, pemigatinib]
[1]
  IC50: > 10000 nM
[2]
  inhibition at 0.1 µM: 2%
[3]
  inhibition at 0.1 µM: -3%
[4]
  inhibition at 0.1 µM: 9%
[5]
  inhibition at 0.1 µM: 3%
[6]
  inhibition at 0.1 µM: 84%
[7]
  inhibition at 0.1 µM: 0%
[8]
  inhibition at 0.1 µM: -10%
[9]
  inhibition at 0.1 µM: 5%
[10]
  inhibition at 0.1 µM: 3%
[11]
  inhibition at 0.1 µM: -2%
[12]
  inhibition at 0.1 µM: -1%
[13]
  inhibition at 0.1 µM: 98%
[14]
  inhibition at 0.1 µM: 0%
[15]
  inhibition at 0.1 µM: -1%
[16]
  inhibition at 0.1 µM: 14%
[17]
  inhibition at 0.1 µM: 3%
[18]
  inhibition at 0.1 µM: -11%
[19]
  inhibition at 0.1 µM: 1%
[20]
  inhibition at 0.1 µM: -9%
[21]
  inhibition at 0.1 µM: 1%
[22]
  Average Percent Inhibition: 2%
[23]
  inhibition at 0.1 µM: 7%
[24]
  inhibition at 0.1 µM: -7%
[25]
  inhibition at 0.1 µM: -2%
[26]
  inhibition at 0.1 µM: -4%
[27]
  inhibition at 0.1 µM: -2%
[28]
  inhibition at 0.1 µM: -1%
[29]
  inhibition at 0.1 µM: -2%
[30]
  inhibition at 0.1 µM: 11%
[31]
  inhibition at 0.1 µM: 6%
[32]
  inhibition at 0.1 µM: 0%
[33]
  inhibition at 0.1 µM: 4%
[34]
  inhibition at 0.1 µM: -1%
[35]
  inhibition at 0.1 µM: 14%
[36]
  inhibition at 0.1 µM: -2%
[37]
  inhibition at 0.1 µM: 0%
[38]
  GI50: 3 ± 1 nM
[39]
  GI50: > 5000 nM
[40]
  clinical response: complete cytogenetic and hematologic remission

— paper PMC7313537 (PLoS ONE, 2020)
